According to US20230124862A1, “BISMUTH THIOL COMPOUNDS AND COMPOSITIONS AND METHODS OF TREATING MICROBIAL CO-INFECTIONS” (Microbion Corporation, priority 2020, published 2023):
≈ marks a conversion by molar mass, not a printed value. Values belong to the compound of their own block, whether it stands above or below them.

Assays:
Candida krusei = assay: Antifungal broth microdilution (Example 13); type: cell-based; conditions: for MIC2: 50% inhibition; for MIC0: complete inhibition
fungal pathogens = assay: Antifungal activity, NIH/NIAID sponsored study; type: cell-based; conditions: for Antifungal activity, MIC 50%: 50% endpoint; for Antifungal activity, MIC 100%: 100% endpoint
Haemophilus influenzae = assay: Broth microdilution MIC, Haemophilus influenzae clinical isolates; type: cell-based
[1] = Particle size distribution of BisEDT samples vs processing conditions; type: physicochemical
[2] = C. krusei ATCC 14243, Susceptible
[3] = C. krusei ATCC 96685, Susceptible
[4] = C. krusei MMX 7125, Susceptible
[5] = C. krusei MMX 7128, Susceptible
[6] = C. krusei MMX 7141, Susceptible
[7] = C. krusei MMX 7155, Susceptible
[8] = C. krusei MMX 7563, Susceptible
[9] = C. krusei MMX 9878, MICA-I, VORI-I
[10] = particle size distribution of BisEDT samples

SMILES: C1C[S][Bi]([S]CC[S][Bi]2[S]CC[S]2)[S]1 [BisEBT]
- MIC2 (Candida krusei; C. krusei ATCC 6258, MICA-I): 0.5 µg/mL
- MIC0 (Candida krusei; C. krusei ATCC 6258, MICA-I): 1 µg/mL
- MIC2 (Candida krusei; [2]): 0.5 µg/mL
- MIC0 (Candida krusei; [2]): 1 µg/mL
- MIC2 (Candida krusei; [3]): 0.25 µg/mL
- MIC0 (Candida krusei; [3]): 0.5 µg/mL
- MIC2 (Candida krusei; [4]): 0.5 µg/mL
- MIC0 (Candida krusei; [4]): 1 µg/mL
- MIC2 (Candida krusei; [5]): 0.5 µg/mL
- MIC0 (Candida krusei; [5]): 1 µg/mL
- MIC2 (Candida krusei; [6]): 0.5 µg/mL
- MIC0 (Candida krusei; [6]): 1 µg/mL
- MIC2 (Candida krusei; C. krusei MMX 7153, MICA-R): 0.5 µg/mL
- MIC0 (Candida krusei; C. krusei MMX 7153, MICA-R): 1 µg/mL
- MIC2 (Candida krusei; [7]): 0.5 µg/mL
- MIC0 (Candida krusei; [7]): 1 µg/mL
- MIC2 (Candida krusei; [8]): 0.5 µg/mL
- MIC0 (Candida krusei; [8]): 1 µg/mL
- MIC2 (Candida krusei; [9]): 0.5 µg/mL
- MIC0 (Candida krusei; [9]): 1 µg/mL

SMILES: C1C[S][Bi]([S]CC[S][Bi]2[S]CC[S]2)[S]1 [BisEQT]
- Antifungal activity, MIC 50% (fungal pathogens; A. fumigatus AF1): 8 µg/mL
- Antifungal activity, MIC 100% (fungal pathogens; A. fumigatus AF1): 16 µg/mL
- Antifungal activity, MIC 50% (fungal pathogens; A. fumigatus AF2): 4 µg/mL
- Antifungal activity, MIC 100% (fungal pathogens; A. fumigatus AF2): 16 µg/mL
- Antifungal activity, MIC 50% (fungal pathogens; A. fumigatus AF3): 4 µg/mL
- Antifungal activity, MIC 100% (fungal pathogens; A. fumigatus AF3): 16 µg/mL
- Antifungal activity, MIC 50% (fungal pathogens; C. albicans CA1): 4 µg/mL
- Antifungal activity, MIC 100% (fungal pathogens; C. albicans CA1): 8 µg/mL
- Antifungal activity, MIC 50% (fungal pathogens; C. albicans CA2): 2 µg/mL
- Antifungal activity, MIC 100% (fungal pathogens; C. albicans CA2): 8 µg/mL
- Antifungal activity, MIC 50% (fungal pathogens; C. albicans CA3): 4 µg/mL
- Antifungal activity, MIC 100% (fungal pathogens; C. albicans CA3): 16 µg/mL
- Antifungal activity, MIC 50% (fungal pathogens; C. auris Cau1): 4 µg/mL
- Antifungal activity, MIC 100% (fungal pathogens; C. auris Cau1): 16 µg/mL
- Antifungal activity, MIC 50% (fungal pathogens; C. auris Cau2): 2 µg/mL
- Antifungal activity, MIC 100% (fungal pathogens; C. auris Cau2): 8 µg/mL
- Antifungal activity, MIC 50% (fungal pathogens; C. auris Cau3): 4 µg/mL
- Antifungal activity, MIC 100% (fungal pathogens; C. auris Cau3): 8 µg/mL
- Antifungal activity, MIC 50% (fungal pathogens; C. krusei ATCC6258): 1 µg/mL
- Antifungal activity, MIC 100% (fungal pathogens; C. krusei ATCC6258): 4 µg/mL
- Antifungal activity, MIC 50% (fungal pathogens; C. neoformans CN1): 2 µg/mL
- Antifungal activity, MIC 100% (fungal pathogens; C. neoformans CN1): 8 µg/mL
- Antifungal activity, MIC 50% (fungal pathogens; C. neoformans CN2): 4 µg/mL
- Antifungal activity, MIC 100% (fungal pathogens; C. neoformans CN2): 8 µg/mL
- Antifungal activity, MIC 50% (fungal pathogens; C. neoformans CN3): 4 µg/mL
- Antifungal activity, MIC 100% (fungal pathogens; C. neoformans CN3): 16 µg/mL
- Antifungal activity, MIC 50% (fungal pathogens; C. parapsilosis ATCC22019): 1 µg/mL
- Antifungal activity, MIC 100% (fungal pathogens; C. parapsilosis ATCC22019): 4 µg/mL
- Antifungal activity, MIC 50% (fungal pathogens; P. variotii CLSI QC): 4 µg/mL
- Antifungal activity, MIC 100% (fungal pathogens; P. variotii CLSI QC): 16 µg/mL
- Antifungal activity, MIC 50% (fungal pathogens; R. arrhizus RA1): 8 µg/mL
- Antifungal activity, MIC 100% (fungal pathogens; R. arrhizus RA1): 16 µg/mL
- Antifungal activity, MIC 50% (fungal pathogens; R. arrhizus RA2): 4 µg/mL
- Antifungal activity, MIC 100% (fungal pathogens; R. arrhizus RA2): 8 µg/mL
- Antifungal activity, MIC 50% (fungal pathogens; R. arrhizus RA3): 4 µg/mL
- Antifungal activity, MIC 100% (fungal pathogens; R. arrhizus RA3): 8 µg/mL

- MIC (Haemophilus influenzae; H. influenzae MMX 0797, BLNAR): 4 µg/mL (≈ 9.43 µM)
- MIC (Haemophilus influenzae; H. influenzae MMX 1224 (ATCC 49247)): 4 µg/mL (≈ 9.43 µM)
- MIC (Haemophilus influenzae; H. influenzae MMX 1302): 2 µg/mL (≈ 4.71 µM)
- MIC (Haemophilus influenzae; H. influenzae MMX 1304): 64 µg/mL (≈ 151 µM)
- MIC (Haemophilus influenzae; H. influenzae MMX 1740): 8 µg/mL (≈ 18.9 µM)
- MIC (Haemophilus influenzae; H. influenzae MMX 1741): 4 µg/mL (≈ 9.43 µM)
- MIC (Haemophilus influenzae; H. influenzae MMX 2795, BLNAR): 1 µg/mL (≈ 2.36 µM)
- MIC (Haemophilus influenzae; H. influenzae MMX 2796, BLNAR): 4 µg/mL (≈ 9.43 µM)
- MIC (Haemophilus influenzae; H. influenzae MMX 2798, BLNAR): 4 µg/mL (≈ 9.43 µM)
- MIC (Haemophilus influenzae; H. influenzae MMX 2799, BLNAR): 8 µg/mL (≈ 18.9 µM)
- MIC (Haemophilus influenzae; H. influenzae MMX 5458): 16 µg/mL (≈ 37.7 µM)
- MIC (Haemophilus influenzae; H. influenzae MMX 5461): 8 µg/mL (≈ 18.9 µM)
- MIC (Haemophilus influenzae; H. influenzae MMX 5469): 4 µg/mL (≈ 9.43 µM)
- MIC (Haemophilus influenzae; H. influenzae MMX 5494): 0.5 µg/mL (≈ 1.18 µM)
- MIC (Haemophilus influenzae; H. influenzae MMX 5495): 2 µg/mL (≈ 4.71 µM)
- MIC (Haemophilus influenzae; H. influenzae MMX 5499): 1 µg/mL (≈ 2.36 µM)
SMILES: CO/N=C(\C(=O)N[C@@H]1C(=O)N2C(C(=O)O)=C(COC(N)=O)CS[C@H]12)c1ccco1 [CFA]

SMILES: C1C[S][Bi]([S]CC[S][Bi]2[S]CC[S]2)[S]1 [Sample 1]
- D(10) ([1]; crystalline BisEDT samples): 0.80 μm
- D(50) ([1]; crystalline BisEDT samples): 2.4 μm
- D(90) ([1]; crystalline BisEDT samples): 5.9 μm
- D[4, 3] ([1]; crystalline BisEDT samples): 2.9 μm
- D(10) [1, 10]: 0.80 μm
- D(50) [1, 10]: 2.4 μm
- D(90) [1, 10]: 5.9 μm
- D[4, 3] [1, 10]: 2.9 μm

SMILES: C1C[S][Bi]([S]CC[S][Bi]2[S]CC[S]2)[S]1 [Sample 2]
- D(10) ([1]; crystalline BisEDT samples): 0.58 μm
- D(50) ([1]; crystalline BisEDT samples): 1.7 μm
- D(90) ([1]; crystalline BisEDT samples): 3.9 μm
- D[4, 3] ([1]; crystalline BisEDT samples): 2.0 μm
- D(10) [1, 10]: 0.58 μm
- D(50) [1, 10]: 1.7 μm
- D(90) [1, 10]: 3.9 μm
- D[4, 3] [1, 10]: 2.0 μm

SMILES: C1C[S][Bi]([S]CC[S][Bi]2[S]CC[S]2)[S]1 [Sample 3]
- D(10) ([1]; crystalline BisEDT samples): 0.59 μm
- D(50) ([1]; crystalline BisEDT samples): 1.9 μm
- D(90) ([1]; crystalline BisEDT samples): 4.5 μm
- D[4, 3] ([1]; crystalline BisEDT samples): 2.3 μm
- D(10) [1, 10]: 0.59 μm
- D(50) [1, 10]: 1.9 μm
- D(90) [1, 10]: 4.5 μm
- D[4, 3] [1, 10]: 2.3 μm

SMILES: C1C[S][Bi]([S]CC[S][Bi]2[S]CC[S]2)[S]1 [Sample 4]
- D(10) ([1]; crystalline BisEDT samples): 0.44 μm
- D(50) ([1]; crystalline BisEDT samples): 1.48 μm
- D(90) ([1]; crystalline BisEDT samples): 3.1 μm
- D[4, 3] ([1]; crystalline BisEDT samples): 1.7 μm
- D(10) [1, 10]: 0.44 μm
- D(50) [1, 10]: 1.48 μm
- D(90) [1, 10]: 3.1 μm
- D[4, 3] [1, 10]: 1.7 μm

SMILES: C1C[S][Bi]([S]CC[S][Bi]2[S]CC[S]2)[S]1 [Sample 5]
- D(10) ([1]; crystalline BisEDT samples): 0.33 μm
- D(50) ([1]; crystalline BisEDT samples): 0.72 μm
- D(90) ([1]; crystalline BisEDT samples): 1.6 μm
- D[4, 3] ([1]; crystalline BisEDT samples): 0.86 μm
- D(10) [1, 10]: 0.33 μm
- D(50) [1, 10]: 0.72 μm
- D(90) [1, 10]: 1.6 μm
- D[4, 3] [1, 10]: 0.86 μm

SMILES: C1C[S][Bi]([S]CC[S][Bi]2[S]CC[S]2)[S]1 [Sample 6]
- D(10) ([1]; crystalline BisEDT samples): 0.34 μm
- D(50) ([1]; crystalline BisEDT samples): 0.87 μm
- D(90) ([1]; crystalline BisEDT samples): 1.8 μm
- D[4, 3] ([1]; crystalline BisEDT samples): 0.98 μm
- D(10) [1, 10]: 0.34 μm
- D(50) [1, 10]: 0.87 μm
- D(90) [1, 10]: 1.8 μm
- D[4, 3] [1, 10]: 0.98 μm
